pIC50, pKd, pKi: −log10 of the molar value. Several values for one entry are separate records, joined by “and”; a condition that tells them apart may be missing. Equal entries are not always repeated. Where two headings read alike, the source gives them in different places.
Experiments:
[1] = molecular target: recombinant BodoCSP4 (Bradysia odoriphaga, UniProt A0A2S0X9L0); test: biochemical; assay type: binding
Description: An F-380 fluorescence spectrophotometer (Tianjin, China) was used to measure the binding affinity of BodoCSP4 to the selected volatiles, using 1-N-phenyl-naphthylamine (1-NPN) as the fluorescent probe. […] Both 1-NPN and the volatile compounds were diluted in chromatographic-grade methanol to make 1 mM stock solutions. Recombinant BodoCSP4 was dissolved in 20 mM Tris-HCl (pH 7.4) and diluted to a 2 µM stock solution.

[2] = system: B. odoriphaga male adults; test: Y-tube olfactometer assay after dsRNA injection; assay type: in vivo, Bradysia odoriphaga; conditions: for effect of silencing of BodoCSP4 on behavioral response of male adults to the ligand: RNAi, Y-tube olfaction assays; for behavioral response (attraction to ligand vs hexane control): n = 60, chi-square test
Excerpt: The primer pairs dsCSP4 and dsGFP, containing the T7 promoter sequence, are listed in Table 1, and the T7 RiboMAX ™ Express RNAi System was used to synthesize double stranded RNAs (dsRNAs). The dsRNAs were microinjected into 3-day-old pupae of B. odoriphaga, and newly eclosed male adults were selected for dsRNA extraction and behavioral assays as previously described ([Yang et al., 2021b]; [Zhang et al., 2021]). According to the fluorescence binding results, after BodoCSP4 was silenced, a Y-tube olfactometer was used to assess the behavioral responses of B. odoriphaga male adults to the ligands diallyl disulfide, methyl allyl disulfide, and n-heptadecane as described in our previous report ([Yang et al., 2019]). In brief, a 10-μL solution of diallyl disulfide, methyl allyl disulfide, or n-heptadecane in hexane was placed on a strip (4 × 40 mm) of filter paper; after 10 s, the strip was placed at the end of one of the two Y-tube arms. As a control, a hexane-treated filter paper strip was placed at the end of the other arm. Two streams of clean air were passed through the Y-tube arms to the base, and one adult male that had been previously injected (at the pupal stage, 12 h before emergence) with dsBodoCSP4 or dsGFP was placed in the base of the Y-tube. If the male adult moved at least half way up one of the Y-tube arms, the result was recorded and considered an indication of attraction or repulsion depending on which arm was selected. Each of six treatment combinations (3 host plant volatiles with controls and dsBodoCSP4 or dsGFP microinjected adults) are represented by 60 replicate assays.
All RT-qPCR experiments were analyzed using one-way ANOVA followed by Tukey-HSD tests with SPSS 20.0 software. All RT-qPCR experiments were conducted using three independent biological replicates. In each of the six Y-tube olfactometer assays (3 ligands and controls without ligand × two types of microinjected B. odoriphaga adult males), behavioral responses to filter paper with or without ligand were analyzed by a chi-square test (χ 2).

[3] = system: antennae of both male and female B. odoriphaga; design: method as in Yang et al., 2019; conditions: ref Yang et al., 2019; cited from earlier work
[4] = system: B. odoriphaga male adults; design: method as in Zhang et al. (2021); conditions: ref Zhang et al. (2021); cited from earlier work
[5] = system: B. odoriphaga male adults; design: method as in Li H. J. et al., 2007; conditions: extract from the abdomen of B. odoriphaga females; ref Li H. J. et al., 2007; cited from earlier work
[6] = recombinant BodoCSP4, Supplemental Table 2, Ki, read-out: Ki
[7] = recombinant BodoCSP4, Supplemental Table 2, IC50, read-out: IC50
[8] = Ki, recombinant BodoCSP4, Supplemental Table 2, Ki
[9] = recombinant BodoCSP4, competitive with 1-NPN, values in text, read-out: binding affinity (Ki)

Sequence of recombinant BodoCSP4 (A0A2S0X9L0 entry or part of it): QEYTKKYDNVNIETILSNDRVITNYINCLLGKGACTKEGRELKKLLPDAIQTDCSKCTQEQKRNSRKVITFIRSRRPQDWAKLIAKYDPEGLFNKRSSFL

| SMILES | pIC50 [1] | pKi [1, 6] | pIC50 [1, 7] | other results |
| --- | --- | --- | --- | --- |
| CC(=O)c1ccccc1 [Acetophenone] | < 4.30 | < 4.30 | – | – |
| CCCCC=O [Valeric aldehyde] | – | < 4.30 | < 4.30 | – |
| CCCCC(C)=O [2-Hexanone] | < 4.30 | – | – | pKi [1, 8]: < 4.30 |
| C=CCSSCC=C [Diallyl disulfide] | – | – | – | pKi ([1]; binding affinity (Ki), recombinant BodoCSP4, competitive with 1-NPN, values in text): 5.24 and > 5.00; effect of silencing of BodoCSP4 on behavioral response of male adults to the ligand [2]: significantly decreased; behavioral response (attraction to ligand vs hexane control) ([2]; dsBodoCSP4-treated adult males): no olfactory attraction; behavioral response (attraction to ligand vs hexane control) ([2]; dsGFP-treated adult males): attracted; electrophysiological responses from the antennae [3]: strong electrophysiological responses; effect of silencing of BodoCSP1 on behavioral response of male adults [4]: reduced the behavioral response |
| C/C1=C\CC/C(C)=C/CC(C)(C)/C=C/C1 [a-Humulene] | – | < 4.30 | < 4.30 | – |
| CCCCCCCCCC=O [Decanal] | – | < 4.30 | < 4.30 | – |
| CCCCCCCCC=O [nonanal] | – | < 4.30 | < 4.30 | – |
| CCCCCCCCCCCC=O [Dodecyl aldehyde] | – | < 4.30 | < 4.30 | – |
| C=CC(=O)OCCCC [Butyl Acrylate] | < 4.30 | – | – | pKi [1, 8]: < 4.30 |
| C=C(C)[C@H]1CC=C(C)CC1 [(R)-(+)-Limonene] | – | < 4.30 | < 4.30 | – |
| C=CC(C)(O)CCC=C(C)C (centres unmarked) [Linalool] | < 4.30 | – | – | pKi [1, 8]: < 4.30 |
| C=C1CC/C=C(/C)CC[C@@H]2[C@@H]1CC2(C)C [ß-caryophyllene] | – | < 4.30 | < 4.30 | – |
| CCCCCCCCCCCCCCCCC [n-Heptadecane] | – | – | – | pKi [1, 9]: 5.16 and > 5.00; effect of silencing of BodoCSP4 on behavioral response of male adults to the ligand [2]: significantly decreased; behavioral response (attraction to ligand vs hexane control) ([2]; dsBodoCSP4-treated adult males): no olfactory attraction; behavioral response (attraction to ligand vs hexane control) ([2]; dsGFP-treated adult males): attracted; behavioral response in male adults [5]: elicits a behavioral response |
| C=CCSSC [Methyl allyl disulfide] | – | – | – | pKi [1, 9]: 5.24 and > 5.00; effect of silencing of BodoCSP4 on behavioral response of male adults to the ligand [2]: did not decrease; behavioral response (attraction to ligand vs hexane control) ([2]; dsBodoCSP4-treated adult males): attracted; behavioral response (attraction to ligand vs hexane control) ([2]; dsGFP-treated adult males): attracted; electrophysiological responses from the antennae [3]: strong electrophysiological responses; effect of silencing of BodoCSP1 on behavioral response of male adults [4]: reduced the behavioral response |
| CCCCOC(=O)CCC(C)=O [Butyl levulinate] | – | < 4.30 | < 4.30 | – |
| CC/C=C\CCO [cis-3-Hexen-1-ol] | < 4.30 | – | – | pKi [1, 8]: < 4.30 |

| SMILES | pIC50 [1] | pKi [1, 6] | pIC50 [1, 7] | other results |
| --- | --- | --- | --- | --- |
| C=CC(C)=CCC=C(C)C [Ocimene] | – | < 4.30 | < 4.30 | – |
| CC(C)=CCCC(C)CCO (centres unmarked) [Citronellol] | – | < 4.30 | < 4.30 | – |
| CCCCCCCC=O [Octanal] | – | < 4.30 | < 4.30 | – |
| CCCCCCCCCCCCCC [Tetradecane] | – | < 4.30 | < 4.30 | – |
| CCCCCCCCC [Nonane] | – | < 4.30 | < 4.30 | – |
| CCCCCCCCCCCCCCCC [Hexadecane] | – | < 4.30 | < 4.30 | – |
| CC(=O)/C=C/C1=C(C)CCCC1(C)C [Beta-Ionone] | < 4.30 | – | – | pKi [1, 8]: < 4.30 |
| CCCCCCCCCCCC [Dodecane] | – | < 4.30 | < 4.30 | – |
| c1ccc(Nc2cccc3ccccc23)cc1 [1-NPN, N-phenyl-1-naphthylamine, reference compound] | – | – | – | pKd [1]: 5.97 |
| COC(=O)Cc1ccccc1 [Methyl phenylacetate] | < 4.30 | – | – | pKi [1, 8]: < 4.30 |
| Cc1ccc(C(C)C)cc1O [Carvaceol] | – | < 4.30 | < 4.30 | – |
| C=C1CCC2CC1C2(C)C (centres unmarked) [ß-pinene] | – | < 4.30 | < 4.30 | – |
| CCCCCCC=O [heptanal] | < 4.30 | < 4.30 | – | – |
| O=Cc1ccccc1 [benzaldehyde] | < 4.30 | – | – | pKi [1, 8]: < 4.30 |
| c1ccc2[nH]ccc2c1 [(H-11)indole] | – | < 4.30 | < 4.30 | – |
| CC12CCC(CC1)C(C)(C)O2 [1,8-Cineole] | < 4.30 | < 4.30 | – | – |

Reference: paper PMC9552003, “Chemosensory protein 4 is required for Bradysia odoriphaga to be olfactory attracted to sulfur compounds released from Chinese chives” (Frontiers in Physiology, 2022)
